Test results: article PMC11191095, “QSAR Reveals Decreased Lipophilicity of Polar Residues Determines the Selectivity of Antimicrobial Peptide Activity” (ACS Omega, 2024)
Where a SMILES comes first, the peptide text is derived from it.

Legend:
Test in all cases: microbe, parasite or virus in culture
E. coli LEC001 = type: cell-based, Escherichia coli; settings: E. coli LEC001 (R)
Outline: (§1)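 Peptides 128→2 μg/mL, 2-fold series; inoculum ~5 × 10^5 CFU/mL from overnight culture (OD600 0.01, mixed 1:1). MHB non-cation-adjusted for bacteria, RPMI 1640 + 2% glucose for fungi. 37 °C, 20 h, OD600. MIC50/MIC90 at 50%/90% inhibition; n ≥ 3.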

E. coli NCTC 12923 = type: cell-based, Escherichia coli; settings: E. coli NCTC 12923 (S)
Outline: as §1

P. aeruginosa NCTC 13437 = type: cell-based, Pseudomonas aeruginosa; settings: P. aeruginosa NCTC 13437 (R)
Outline: as §1

A. baumannii ATCC 17978 = type: cell-based, Acinetobacter baumannii; settings: A. baumannii ATCC 17978 (S)
Outline: as §1

A. baumannii AYE = type: cell-based, Acinetobacter baumannii; settings: A. baumannii AYE (R)
Outline: as §1

K. pneumoniae M6 = type: cell-based, Klebsiella pneumoniae; settings: K. pneumoniae M6 (S)
Outline: as §1

K. pneumoniae NCTC 13368 = type: cell-based, Klebsiella pneumoniae; settings: K. pneumoniae NCTC 13368 (R)
Outline: as §1

S. aureus (MRSA) 1199B = type: cell-based, Staphylococcus aureus; settings: S. aureus (MRSA) 1199B (R)
Outline: as §1

[1] = system: S. aureus (MRSA) NCTC 13616; type: cell-based, Staphylococcus aureus; settings: S. aureus (MRSA) NCTC 13616 (R)
Outline: as §1

S. aureus (MRSA) USA300 = type: cell-based, Staphylococcus aureus; settings: S. aureus (MRSA) USA300 (R)
Outline: as §1

C. auris TDG 1912 = type: cell-based, Candida auris; settings: C. auris TDG 1912
Outline: as §1

C. albicans NCPF 3281 = type: cell-based; settings: C. albicans NCPF 3281
Outline: as §1

C. glabrata NCPF 8018 = type: cell-based; settings: C. glabrata NCPF 8018
Outline: as §1

C. krusei NCPF 3876 = type: cell-based; settings: C. krusei NCPF 3876
Outline: as §1

[2] = system: C. parapsilosis NCPF 3209; type: cell-based; settings: C. parapsilosis NCPF 3209
Outline: as §1

C. tropicalis NCPF 8760 = type: cell-based; settings: C. tropicalis NCPF 8760
Outline: as §1

[3] = MHB, 37 °C, 20 h, OD600, min. three biological repeats
[4] = 50% growth inhibition, RPMI 1640 + 2% glucose, 37 °C, 20 h
[5] = 90% growth inhibition, RPMI 1640 + 2% glucose, 37 °C, 20 h

CC[C@H](C)[C@H](NC(=O)CNC(=O)[C@@H](N)CCCCN)C(=O)N[C@@H](CCCNC(=N)N)C(=O)NCC(=O)N[C@@H](Cc1ccc(O)cc1)C(=O)N[C@@H](CCCCN)C(=O)NCC(=O)NCC(=O)N[C@@H](Cc1ccc(O)cc1)C(=O)N[C@@H](CS)C(=O)N[C@@H](CCCCN)C(=O)NCC(=O)N[C@@H](C)C(=O)N[C@@H](Cc1ccccc1)C(=O)N[C@@H](CCCCN)C(=O)N[C@@H](CCC(N)=O)C(=O)N[C@H](C(=O)N[C@@H](CS)C(=O)N[C@@H](CCCCN)C(=O)N[C@@H](CS)C(=O)N[C@@H](Cc1ccc(O)cc1)C(N)=O)[C@@H](C)O [Osa] (H-KGIRGYKGGYCKGAFKQTCKCY-NH2; N-terminus assumed)
Modal MIC (E. coli LEC001; [3]): > 128 µg/mL | Modal MIC (E. coli LEC001; shown in µM): > 51.7 µM | Modal MIC (E. coli NCTC 12923; MHB, ~5×10^5 CFU/mL, 37 °C, 20 h, OD600, min. three biological repeats): > 128 µg/mL | Modal MIC (E. coli NCTC 12923; shown in µM): > 51.7 µM | Modal MIC (P. aeruginosa NCTC 13437; [3]): > 128 µg/mL | Modal MIC (P. aeruginosa NCTC 13437; shown in µM): > 51.7 µM | Modal MIC (A. baumannii ATCC 17978; [3]): > 128 µg/mL | Modal MIC (A. baumannii ATCC 17978; shown in µM): > 51.7 µM | Modal MIC (A. baumannii AYE; [3]): > 128 µg/mL | Modal MIC (A. baumannii AYE; shown in µM): > 51.7 µM | Modal MIC (K. pneumoniae M6; [3]): > 128 µg/mL | Modal MIC (K. pneumoniae M6; shown in µM): > 51.7 µM | Modal MIC (K. pneumoniae NCTC 13368; [3]): > 128 µg/mL | Modal MIC (K. pneumoniae NCTC 13368; shown in µM): > 51.7 µM | Modal MIC (S. aureus (MRSA) 1199B; [3]): > 128 µg/mL | Modal MIC (S. aureus (MRSA) 1199B; shown in µM): > 51.7 µM | Modal MIC [1, 3]: > 128 µg/mL | Modal MIC ([1]; shown in µM): > 51.7 µM | Modal MIC (S. aureus (MRSA) USA300; [3]): > 128 µg/mL | Modal MIC (S. aureus (MRSA) USA300; shown in µM): > 51.7 µM | Modal MIC50 (C. auris TDG 1912; 50% growth inhibition, RPMI 1640 + 2% glucose, 37 °C, 20 h, OD600): > 128 µg/mL | Modal MIC90 (C. auris TDG 1912; 90% growth inhibition, RPMI 1640 + 2% glucose, 37 °C, 20 h, OD600): > 128 µg/mL | Modal MIC50 (C. auris TDG 1912; shown in µM): > 51.7 µM | Modal MIC90 (C. auris TDG 1912; shown in µM): > 51.7 µM | Modal MIC50 (C. albicans NCPF 3281; [4]): > 128 µg/mL | Modal MIC90 (C. albicans NCPF 3281; [5]): > 128 µg/mL | Modal MIC50 (C. albicans NCPF 3281; shown in µM): > 51.7 µM | Modal MIC90 (C. albicans NCPF 3281; shown in µM): > 51.7 µM | Modal MIC50 (C. glabrata NCPF 8018; [4]): > 128 µg/mL | Modal MIC90 (C. glabrata NCPF 8018; [5]): > 128 µg/mL | Modal MIC50 (C. glabrata NCPF 8018; shown in µM): > 51.7 µM | Modal MIC90 (C. glabrata NCPF 8018; shown in µM): > 51.7 µM | Modal MIC50 (C. krusei NCPF 3876; [4]): > 128 µg/mL | Modal MIC90 (C. krusei NCPF 3876; [5]): > 128 µg/mL | Modal MIC50 (C. krusei NCPF 3876; shown in µM): > 51.7 µM | Modal MIC90 (C. krusei NCPF 3876; shown in µM): > 51.7 µM | Modal MIC50 [2, 4]: > 128 µg/mL | Modal MIC90 [2, 5]: > 128 µg/mL | Modal MIC50 ([2]; shown in µM): > 51.7 µM | Modal MIC90 ([2]; shown in µM): > 51.7 µM | Modal MIC50 (C. tropicalis NCPF 8760; [4]): > 128 µg/mL | Modal MIC90 (C. tropicalis NCPF 8760; [5]): > 128 µg/mL | Modal MIC50 (C. tropicalis NCPF 8760; shown in µM): > 51.7 µM | Modal MIC90 (C. tropicalis NCPF 8760; shown in µM): > 51.7 µM
